The results in this text go back to publication PMC6017909, “Synthesis and Evaluation of the Tumor Cell Growth Inhibitory Potential of New Putative HSP90 Inhibitors” (Molecules : A Journal of Synthetic Chemistry and Natural …, 2018).

For one assay, the system named is NCI-H460. The assay can be described thus: Cell-counting assay, 72-h drug exposure. It is filed as cell-based. To be noted: Homo sapiens, read-out: Cell Growth Inhibitory Activity NCI-H460 IC50 72 h. From the text: (§1) For the cytotoxic activity studies and determination of GI50 concentrations in three different tumor cell lines, the cell culture conditions are described in Section 3.5. For the studies on the effect on % viable cells, cell cycle, cellular proliferation, and apoptosis, culture conditions are described in Section 3.6.1. For the remaining studies, the epithelial carcinoma cell line A431 and the non-small cell lung carcinoma cell line NCI-H460 were routinely grown in RPMI 1640 (Lonza, Vierviers, Belgium), supplemented with 10% (v/v) heat-inactivated fetal bovine serum (FBS, GIBCO, Invitrogen, Paisley, UK). The human peritoneal mesothelioma cell line STO was kindly provided by Dr. N. Zaffaroni (IRCCS Istituto Nazionale Tumori, Milan, Italy) and grown in 50/50 DMEM-Ham’s F12 medium (Lonza, Vierviers, Belgium), supplemented with 10% (v/v) heat-inactivated foetal bovine serum and 2 mM L-glutamine (L-Gln). All cell lines were maintained at 37 °C in a 5%/95% CO2/air atmosphere. All the compounds tested were freshly prepared by dissolving powder in dimethylsulfoxide (DMSO) (BDH Prolabo, Milan, Italy) and following dilution in culture medium. Cells were incubated with drugs for 48 h or 72 h (unless otherwise stated) at 37 °C in culture medium supplemented with 10% (v/v) heat-inactivated FBS; drug concentrations used for each assay and duration of treatments are reported in Legends to Figures.
(§2) Cellular sensitivity to drugs was evaluated by a cell-counting assay after 72-h drug exposure. Cells in the logarithmic phase of growth were seeded in duplicate into 6-well plates. Twenty-four hours after seeding, the drug was added to the medium. Cells were harvested 72 h after drug exposure and counted with a cell counter.

A further assay deals with A431. Put plainly: Cell-counting assay, 72-h drug exposure. To be noted: Homo sapiens, A-431, read-out: Cell Growth Inhibitory Activity A431 IC50 72 h. It is filed as cell-based.
Excerpt: as §1, §2

The next assay concerns the target T1, HSP90 (Homo sapiens, UniProt P07900).
T1 construct: purchased Stressgen SPP-776
Put plainly: HSP90 binding, fluorescence polarization with GM-FITC. To be noted: displacement of GM-FITC 5 nM, 30 nM HSP90, 4 °C, 4 h; read-out: Binding HSP90 (FP) IC50. On the procedure:
GM-FITC Geldanamycin-fluorescein-5-isothiocyanate (working concentration: 1–400 nM), supplied by Invivogen (06C23-MT, San Diego, CA, USA), was previously dissolved in DMSO to obtain 10 mM stock solutions and kept at −20 °C until use. […] The compounds were previously dissolved in DMSO to obtain stock solutions and kept at −20 °C. The day of experiment, the compounds were prepared by serial dilutions in assay buffer (HFB) containing 20 mM HEPES (K) pH 7.3, 50 mM KCl, 5 mM MgCl2, 20 mM Na2MoO4 and 0.01% NP40. Before each use, 0.1 mg/mL Bovine Gamma globulin and 2 mM DTT were freshly added. […] The plate was mixed on a shaker at 4 °C for 4 h, and the FP values in mP (millipolarization units) were recorded. […] Curve fitting was performed using Prism GraphPad software program (GraphPad software, Inc., San Diego, CA, USA).
On the technique in general: Polarisation of emitted light reports the rotation of a fluorescent probe.

A further assay has as its system STO. The assay can be described thus: Cell-counting assay, 72-h drug exposure. The settings on record: Homo sapiens, read-out: Cell Growth Inhibitory Activity STO IC50 72 h. It is filed as cell-based.
Excerpt: as §1, §2

What is called IC50 is the concentration needed to halve the response being measured.

`O=C1c2ccccc2C(=O)c2c[n+](Cc3ccccc3)ccc21` [Compound 2a, 2-Benzyl-5,10-dioxo-5,10-dihydro-benzo[g]isoquinolinium bromide]: the IC50 in the assay with NCI-H460 was determined as 0.7 ± 0.01 µM; with A431, 0.2 ± 0.01 µM.
For `O=C1c2ccccc2C(=O)c2c[n+](Cc3ccc(F)cc3F)ccc21` [Compound 2b, 2-(2,4-Difluoro-benzyl)-5,10-dioxo-5,10-dihydro-benzo[g]isoquinolinium bromide], in that order: 3.2 ± 0.5 µM and 3.1 ± 0.5 µM.
Turning to `CC(C)(C)c1ccc(C[n+]2ccc3c(c2)C(=O)c2ccccc2C3=O)cc1` [Compound 2c, 2-(4-tert-Butyl-benzyl)-5,10-dioxo-5,10-dihydro-benzo[g]isoquinolinium bromide], the IC50 with A431 turned out to be 0.46 ± 0.8 µM.
Turning to `O=c1c2ccccc2oc2cnccc12` [Compound 4, 5H-chromeno[2,3-c]pyridin-5-one], the IC50 at HSP90 was over 100 µM; in the assay on NCI-H460, over 50 µM; in the assay with STO, over 50 µM; with A431, over 50 µM.
Regarding `O=c1c2ccccc2sc2cnccc12` [Compound 7], the IC50 on HSP90 was 2.47 ± 0.09 µM; in the assay with NCI-H460, over 50 µM; in the assay on STO, 46.9 µM; with A431, 46.9 µM.
As for `O=c1c2ccccc2oc2c1ccc[n+]2Cc1ccccc1` [Compound 10, 1-Benzyl-10-oxo-10H-9-oxa-1-azonia-anthracene bromide], the IC50 was over 100 µM on HSP90, over 50 µM in the assay on NCI-H460, over 50 µM with STO and over 50 µM in the assay with A431.
With `C=CCNC1=C2C[C@@H](C)C[C@H](OC)[C@H](O)[C@@H](C)/C=C(\C)[C@H](OC(N)=O)[C@@H](OC)/C=C\C=C(/C)C(=O)NC(=CC1=O)C2=O` [Compound 17-AAG, 17-N-allylamino-17-demethoxygeldanamycin, reference compound], the IC50 came out at 0.01 ± 0.002 µM in the assay on NCI-H460 and 0.069 ± 0.005 µM in the assay on A431.
